Tests used:
[1] = tested on: keratoconjunctivitis sicca (dry eye) animal model; details: imatinib eye drop (0.1 mg/ml), twice a day for 1 week; FIG. 4
Protocol: White SD rats were used as an animal, and keratoconjunctivitis sicca was induced by administering 1% atropine sulfate and 0.1% benzalkonium chloride dropwise to an eye twice a day for 2 weeks.
An imatinib eye drop (0.1 mg/ml) was administered dropwise to an eye twice a day for 1 week after 7 days of administration of 1% atropine sulfate and 0.1% benzalkonium chloride.
In order to observe corneal degeneration in the keratoconjunctivitis sicca (dry eye) model, F-actin staining was performed. F-actin was stained with phalloidin labeled with a fluorescent material.

[2] = tested on: keratoconjunctivitis sicca (dry eye) animal model; assay: Corneal epithelium protection: lissamine green staining of the cornea in keratoconjunctivitis sicca model; format: in vivo, Spraque-Dawley (SD) rats
Protocol: To carry out an experiment for dry corneal epithelial damage, a dry eye animal model was constructed. 8-week-old Spraque-Dawley (SD) rats (available from Orient Bio) were used as an animal, keratoconjunctivitis sicca was induced by administering an eye drop containing 0.1% benzalkonium chloride (Sigma Aldrich) in 1% atropine sulfate (Alcon) twice a day for 2 weeks.
The imatinib eye drop (1 mg/ml) was administered dropwise to an eye twice a day for 1 week after 7 days of administration of 1% atropine sulfate and 0.1% benzalkonium chloride. To compare therapeutic effects, a 0.05% Cyclosporin eye drop (Restasis, Allergan) was used as a reference drug.
Corneal epithelial damage was identified in the keratoconjunctivitis sicca animal model by staining a surface of the cornea with a 1% lissamin green solution and observing a damaged region thereof (see FIG. 1).
Damage to corneal epithelium cells due to dryness was identified in a keratoconjunctivitis sicca (dry eye)-induced cornea by staining a dried state of the corneal epithelium cells with lissamin green (see FIG. 1). […] A stained area after staining was expressed as a percentage (%) with respect to a total corneal area.

[3] = tested on: keratoconjunctivitis sicca (dry eye) animal model; assay: Invasion of specific inflammatory cells into the cornea: LSP-1 immunostaining in keratoconjunctivitis sicca model; format: in vivo, Spraque-Dawley (SD) rats; details: imatinib eye drop 0.1%
Protocol: An experiment was carried out using the same administration method as that used in the animal model of Example 1, and then an inflammation inhibitory effect of imatinib on specific inflammatory cells invaded into the cornea was identified.
To identify inflammatory cells in the cornea in keratoconjunctivitis sicca (dry eye), the eye was cryosectioned, and inflammatory cells having an antigen of LSP-1 were stained and observed (See FIG. 5). Inflammation-associated cells such as lymphocytes, neutrophils, and macrophages have LSP-1 can be observed after being immunostained using an LSP-1 antibody. Inflammatory cells were observed by 0.61±0.05 in a control (a drug-non-treated group) and by 0.52±0.05 in an imatinib eye drop (0.1%) (See FIG. 6).

## Cc1ccc(NC(=O)c2ccc(CN3CCN(C)CC3)cc2)cc1Nc1nccc(-c2cccnc2)n1 [imatinib]
[1]
  corneal degeneration (keratinization of corneal epithelial cells, F-actin staining): not observed
[2]; concentration-dependent efficacy test, 0.01% (0.1 mg/ml), vehicle control 12.8±1.98%, FIG. 3
  lissamine green stained area as percentage of total corneal area: 8.2±0.97%
[2]; concentration-dependent efficacy test, 0.05% (0.5 mg/ml), vehicle control 12.8±1.98%, FIG. 3
  lissamine green stained area as percentage of total corneal area: 6.18±0.9%
[2]; concentration-dependent efficacy test, 0.1% (1 mg/ml), vehicle control 12.8±1.98%, FIG. 3
  lissamine green stained area as percentage of total corneal area: 3.7±0.87%
[2]; concentration-dependent efficacy test, 0.5% (5 mg/ml), vehicle control 12.8±1.98%, FIG. 3
  lissamine green stained area as percentage of total corneal area: 3.5±1.1%
[2]; concentration-dependent efficacy test, 1.0% (10 mg/ml), vehicle control 12.8±1.98%, FIG. 3
  lissamine green stained area as percentage of total corneal area: 3.1±1.2%
[2]; imatinib 0.01% to 1.0%, FIG. 3
  effect on lissamine green staining when administered according to concentration: concentration-dependent effect
[2]; imatinib 0.1% (1 mg/ml) eye drop, twice a day for 1 week, vehicle control 11±1.26%, FIG. 2
  lissamine green stained area as percentage of total corneal area: 2.6±0.39%
[3]
  effect on inflammation in keratoconjunctivitis sicca (inflammatory cell staining): had an inflammation inhibitory effect
[3]; control (drug-non-treated group) 0.61±0.05, FIG. 6
  inflammatory cells observed (LSP-1-stained cells in the cornea): 0.52±0.05

Reference: patent publication US10231971B2, “Pharmaceutical composition for preventing and treating dry eye diseases, containing imatinib as active ingredient” (AVIXGEN INC., priority 2015, dated 2019)
